Measurements: PMC6836034, “The Effect of Silymarin Flavonolignans and Their Sulfated Conjugates on Platelet Aggregation and Blood Vessels Ex Vivo” (Nutrients, 2019)

Target: T1, COX-1 (cyclooxygenase-1) (Ovis aries, UniProt P05979)
T1 construct: gene PTGS1
T1 sequence (P05979 25-600): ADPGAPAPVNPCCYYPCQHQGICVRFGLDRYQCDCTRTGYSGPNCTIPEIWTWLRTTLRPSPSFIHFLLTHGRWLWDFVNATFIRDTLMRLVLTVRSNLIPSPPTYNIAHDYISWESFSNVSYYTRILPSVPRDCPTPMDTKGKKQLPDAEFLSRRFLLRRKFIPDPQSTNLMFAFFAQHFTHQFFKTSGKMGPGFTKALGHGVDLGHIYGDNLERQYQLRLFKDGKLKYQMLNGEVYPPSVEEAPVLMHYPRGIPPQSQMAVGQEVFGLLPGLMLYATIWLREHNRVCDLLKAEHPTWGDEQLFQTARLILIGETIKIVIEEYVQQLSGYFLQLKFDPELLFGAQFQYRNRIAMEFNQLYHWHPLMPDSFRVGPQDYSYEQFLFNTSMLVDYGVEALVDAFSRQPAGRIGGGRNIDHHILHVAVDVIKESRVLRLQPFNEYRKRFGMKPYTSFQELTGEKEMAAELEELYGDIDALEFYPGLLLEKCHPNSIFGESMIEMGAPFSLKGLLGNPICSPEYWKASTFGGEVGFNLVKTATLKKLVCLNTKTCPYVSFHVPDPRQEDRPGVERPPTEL
Test: biochemical

## COc1cc(C2Oc3cc(-c4oc5cc(O)cc(O)c5c(=O)c4O)ccc3OC2CO)ccc1O (racemic) [2,3-dehydrosilybin]
  IC50: 25.2 ± 10.4 µM
